Source: PubChem BioAssay (NCI)
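96-well plates; 48 h exposure; 5 concentrations. Endpoints by linear interpolation between flanking doses. Not reached: highest tested concentration assigned. TGI marks complete inhibition of growth.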

Legend:
Test in all cases: DTP human tumour cell line panel, 48 h
[1] = system: A498 renal
[2] = system: MALME-3M melanoma
[3] = system: NCI-H23 lung
[4] = system: RPMI-8226 leukemia
[5] = system: SF-295 CNS
[6] = system: SN12C renal
[7] = system: KM12 colon
[8] = system: OVCAR-5 ovarian
[9] = system: UACC-257 melanoma
[10] = system: SNB-75 CNS
[11] = system: CCRF-CEM leukemia
[12] = system: IGROV1 ovarian
[13] = system: UO-31 renal
[14] = system: HOP-92 NSCLC

SMILES | TGI [1] | TGI [2] | TGI [3] | TGI [4] | TGI [5] | TGI [6] | TGI [7] | TGI [8] | TGI [9] | TGI [10] | TGI [11] | TGI [12] | TGI [13] | TGI [14]
CCCCCCCSCC1C(=O)C23C(O)C1CCC2C12COC3(O)C(O)C1C(C)(C)CCC2O (stereo unspecified) | 26.9 µM | 27.4 µM | 34 µM | 27.3 µM | 33.4 µM | 23.6 µM | 23.9 µM | 31.4 µM | 19.4 µM | 49.2 µM | 14 µM | 36.2 µM | 23.5 µM | 31.8 µM
O=[N+]([O-])c1ccc(NC(=S)Nc2ccccn2)cc1 | 45.6 µM | > 100 µM | > 100 µM | > 100 µM | > 100 µM | > 100 µM | > 55.6 µM | > 100 µM | > 100 µM | 71.6 µM | > 100 µM | > 100 µM | > 100 µM | > 100 µM
CC[C@](C)(O)C(=O)O[C@H]1C(=O)O[C@@H]2C[C@H]3C(C)=C[C@H](O)[C@@H](O)[C@]3(C)[C@H]3[C@@]4(O)OC[C@]32[C@@H]1[C@@H](C)[C@H]4O | 71.5 µM | 34.1 µM | 13.5 µM | 24.4 µM | 116 µM | 310 µM | 109 µM | 291 µM | 149 µM | 86.5 µM | 23.9 µM | 52.5 µM | 284 µM | 83.1 µM
CCN1C[C@]2(C)CC[C@H](OCc3ccccc3)C34C5C[C@@H]6CC[C@](O)(C(C[C@@H]32)C14)C5[C@H]6OCc1ccccc1 (stereo partly specified) | > 100 µM | > 100 µM | > 100 µM | > 100 µM | > 100 µM | > 100 µM | > 100 µM | > 100 µM | > 100 µM | > 100 µM | > 100 µM | > 100 µM | > 100 µM | > 100 µM
COc1ccc(CCc2ccccc2CC(=O)O)cc1 | > 100 µM | > 100 µM | > 100 µM | > 100 µM | > 100 µM | > 100 µM | > 100 µM | > 100 µM | > 100 µM | > 100 µM | > 100 µM | > 100 µM | > 100 µM | > 100 µM
CC1CC(C)(O)CC(C(O)CC2CC(=O)NC(=O)C2)C1=O (stereo unspecified) | 3.51 µM | 6.44 µM | 1.56 µM | 0.564 µM | 0.142 µM | 0.64 µM | 1.41 µM | 9.21 µM | > 100 µM | 1.27 µM | 1.53 µM | 1.55 µM | 1.16 µM | 0.625 µM
COC(=O)/C=C(/C(=O)OC)c1c(C)cc2c(C)cc(C)cc(C)c1-2 | 70.3 µM | > 65.5 µM | > 81.1 µM | > 100 µM | 29.3 µM | 40.2 µM | > 58.2 µM | > 78.8 µM | > 77.5 µM | > 72.2 µM | > 100 µM | > 100 µM | 98.2 µM | > 100 µM
CC(C)c1nc2c(Cl)c3ncccc3cc2[nH]c1=O | > 100 µM | > 100 µM | > 100 µM | > 100 µM | > 100 µM | > 100 µM | > 100 µM | > 100 µM | > 100 µM | > 100 µM | > 100 µM | > 100 µM | > 100 µM | > 100 µM
COC(=O)c1c(O)ccc2c1c1c(n2-c2ccc(OC)cc2)C(=O)c2ccccc2C1=O | > 100 µM | 58.4 µM | > 100 µM | > 100 µM | 44.1 µM | > 100 µM | 77.8 µM | 75.4 µM | > 100 µM | 51.5 µM | > 100 µM | 91.6 µM | 31.1 µM | 36.7 µM
